This note sets out measurements from patent US20260285853A1, “COMPOUNDS AND METHODS FOR MODULATING SPLICING” (REMIX THERAPEUTICS INC., priority 2023, published 2026).

In general, AC50 refers to the midpoint of the concentration-response curve, whichever way the signal moves. The IC50 is the concentration that inhibits the measured activity by half. One may read the GI50 as the concentration giving 50% growth inhibition.

Molecules are shown by their SMILES. Where a name gives a salt, the structure may show the parent alone.

Holding throughout (assay type): cell-based
In assay [1] the test system is HTT mRNA. The assay is described as follows: Splicing RT-qPCR assay (THP), Table 2A. Particulars: Table 2A (THP); for AC50: AJ mRNA increase, read-out: HTT AJ (increase in alternative junction mRNA, AC50); for IC50: CJ mRNA decrease, read-out: HTT CJ (decrease in canonical junction mRNA, IC50). Background: Real-time PCR tracks product formation cycle by cycle.
Assay [2] deals with MYB mRNA. Description: Splicing RT-qPCR assay (THP), Table 2A. Particulars: Table 2A (THP); for AC50: AJ mRNA increase, read-out: MYB AJ (increase in alternative junction mRNA, AC50); for IC50: CJ mRNA decrease, read-out: MYB CJ (decrease in canonical junction mRNA, IC50).
Assay [3] concerns HTT mRNA. The assay is described as follows: Gene panel canonical junction qPCR assay, decrease in CJ mRNA, Table 3. Particulars: decrease in canonical junction (CJ) mRNA, gene panel qPCR, Table 3. In outline: (§1)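 A673 cells were plated, left to adhere for 24 h, then dosed; K562 cells were plated in 96- or 384-well format and dosed directly. Both were incubated 24 h at 37 °C with an 11-point 3-fold series (top 10 uM final). Canonical junction mRNA was then read by cDNA synthesis and qPCR.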

The test system of assay [4] is MYB mRNA. Described as above. Particulars: decrease in canonical junction (CJ) mRNA, gene panel qPCR, Table 3. The method, boiled down: as §1
Assay [5] has as its system SH-SY5Y (human neuroblastoma) cells. The assay is described as follows: Cell viability, Cell Titer Glo 2.0 assay. Particulars: read-out: Viability SHSY5Y.3 GI50. The method, boiled down:
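SH-SY5Y neuroblastoma cells are exposed to test compounds for 72 hours at 37 °C and 5% CO2, with final DMSO held at 0.1%. Cell viability is then measured with the CellTiter-Glo 2.0 assay.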

For `Cc1cn2cc(NC(=O)c3c(F)cc(N4CCC(N(C)C)CC4)c4cn(C)nc34)nc2c(C)n1` [Compound 356, 4-[4-(dimethylamino)-1-piperidyl]-N-(6,8-dimethylimidazo[1,2-a]pyrazin-2-yl)-6-fluoro-2-methyl-indazole-7-carboxamide], the AC50 in the assay on HTT mRNA [1] is 1000 to 10000 nM; in the assay on MYB mRNA [2] it was < 100 nM. The IC50 was in the range of 1000 to 10000 nM with HTT mRNA [1], 100 to 1000 nM with MYB mRNA [2], 1000 to 10000 nM with HTT mRNA [3] and 100 to 1000 nM in the assay with MYB mRNA [4]. The GI50 in assay [5] was in the range of 1000 to 10000 nM.

For the compound `CCNC1CCN(c2cc(F)c(C(=O)Nc3cn4cc(C)nc4c(Cl)c3OC)c3nn(C)cc23)CC1` [Compound 357, N-(8-chloro-7-methoxy-2-methylimidazo[1,2-a]pyridin-6-yl)-4-[4-(ethylamino)-1-piperidyl]-6-fluoro-2-methyl-indazole-7-carboxamide], the AC50 in the assay with HTT mRNA [1] was 100 to 1000 nM; in the assay with MYB mRNA [2] it was < 100 nM. Moreover, the concentration for half-maximal inhibition (IC50) is 100 to 1000 nM in the assay with HTT mRNA [1], < 100 nM with MYB mRNA [2], 100 to 1000 nM with HTT mRNA [3] and < 100 nM in the assay on MYB mRNA [4]. In addition, the GI50 in assay [5] lay in the range of 100 to 1000 nM.

Turning to `CCNC1CCN(c2ccc(C(=O)Nc3cn4cc(C)nc(CC)c4n3)c3nn(C)cc23)CC1` [Compound 358, 4-[4-(ethylamino)-1-piperidy1]-N-(8-ethyl-6-methyl-imidazo[1,2-a]-pyrazin-2-yl)-2-methyl-indazole-7-carboxamide], the AC50 with HTT mRNA [1] was 1000 to 10000 nM; in the assay with MYB mRNA [2], 100 to 1000 nM. Further, the IC50 with HTT mRNA [1], in the assay on MYB mRNA [2], in the assay on HTT mRNA [3] and in the assay on MYB mRNA [4] was 1000 to 10000 nM in each case. In addition, in assay [5], the GI50 was 1000 to 10000 nM.

Turning to `CCNC1CCN(c2cc(F)c(C(=O)Nc3cn4cc(C#N)nc(C)c4n3)c3nn(C)cc23)CC1` [Compound 359, N-(6-cyano-8-methyl-imidazo-[1,2-a]pyrazin-2-yl)-4-[4-(ethylamino)-1-piperidyl]-6-fluoro-2-methyl-indazole-7-carboxamide], the AC50 in the assay on HTT mRNA [1] and in the assay on MYB mRNA [2] was 100 to 1000 nM throughout. Further, the IC50 with HTT mRNA [1], in the assay with MYB mRNA [2], in the assay on HTT mRNA [3] and in the assay with MYB mRNA [4] was 100 to 1000 nM in each case. Further, in assay [5], the GI50 was in the range of 100 to 1000 nM.

In the case of `CCNC1CCN(c2ccc(C(=O)Nc3cc(-n4ccc(=O)cc4)c4nc(C)cn4c3)c3nn(C)cc23)CC1` [Compound 360, 4-(4-(ethylamino)piperidin-1-yl)-2-methyl-N-(2-methyl-8-(4-oxopyridin-1-(4H)-yl)imidazo[1,2-a]-pyridin-6-yl)-2H-indazole-7-carboxamide], the AC50 with HTT mRNA [1] and with MYB mRNA [2] was 1000 to 10000 nM in each case. Also, the IC50 in the assay on HTT mRNA [1], with MYB mRNA [2], with HTT mRNA [3] and with MYB mRNA [4] was 1000 to 10000 nM each time. Moreover, the GI50 in assay [5] lay in the range of 1000 to 10000 nM.

On to `Cc1cn2cc(NC(=O)c3ncc(N4CCC(NC5CC5)CC4)c4cn(C)nc34)cc(F)c2n1` [Compound 361, 4-[4-(cyclopropylamino)-1-piperidyl]-N-(8-fluoro-2-methyl-imidazo[1,2-a]pyridin-6-yl)-2-methyl-pyrazolo[3,4-c]pyridine-7-carboxamide], for which the values for the AC50 in the assay with HTT mRNA [1] and with MYB mRNA [2] were 1000 to 10000 nM and 100 to 1000 nM, respectively. Further, the IC50 is > 10000 nM in the assay with HTT mRNA [1], 100 to 1000 nM in the assay on MYB mRNA [2], > 10000 nM with HTT mRNA [3] and 100 to 1000 nM in the assay on MYB mRNA [4]. Besides, the concentration for 50% growth inhibition (GI50) in assay [5] fell in the range of 1000 to 10000 nM.

Regarding `CCNC1CCN(c2cc(F)c(C(=O)Nc3cn4cc(C)nc(CC)c4n3)c3nn(C)cc23)CC1` [Compound 362, 4-[4-(ethylamino)-1-piperidyl]-N-(8-ethyl-6-methyl-imidazo[1,2-a]pyrazin-2-yl)-6-fluoro-2-methyl-indazole-7-carboxamide], the AC50 in the assay on HTT mRNA [1] was > 10000 nM; in the assay on MYB mRNA [2], < 100 nM. The IC50 in the assay on HTT mRNA [1] is > 10000 nM; in the assay on MYB mRNA [2] it was 100 to 1000 nM; in the assay with HTT mRNA [3], > 10000 nM; with MYB mRNA [4] it was 100 to 1000 nM. The GI50 in assay [5] fell in the range of 1000 to 10000 nM.

As to `CCNC1CCN(c2ccc(C(=O)Nc3ccn(-c4ccncn4)n3)c3nn(C)cc23)CC1` [Compound 363, 4-(4-(ethylamino)-piperidin-1-yl)-2-methyl-N-(1-(pyrimidin-4-yl)-1H-pyrazol-3-yl)-2H-indazole-7-carboxamide 2,2,2-trifluoroacetate], the AC50 in the assay with HTT mRNA [1] and in the assay on MYB mRNA [2] was > 10000 nM each time. In addition, the half-maximal inhibitory concentration (IC50) in the assay on HTT mRNA [1], with MYB mRNA [2], in the assay with HTT mRNA [3] and with MYB mRNA [4] was > 10000 nM throughout. Further, in assay [5], the GI50 is > 10000 nM.

Consider `CCNC1CCN(c2cc(F)c(C(=O)Nc3cn4cc(C)nc4c(N)c3OC)c3nn(C)cc23)CC1` [Compound 364, N-(8-amino-7-methoxy-2-methyl-imidazo[1,2-a]-pyridin-6-yl)-4-[4-(ethylamino)-1-piperidyl]-6-fluoro-2-methyl-indazole-7-carboxamide], for which the results for the AC50 in the assay on HTT mRNA [1] and in the assay on MYB mRNA [2] were 100 to 1000 nM and < 100 nM, respectively. Also, the IC50 is 1000 to 10000 nM in the assay on HTT mRNA [1], 100 to 1000 nM with MYB mRNA [2], 1000 to 10000 nM with HTT mRNA [3] and < 100 nM in the assay on MYB mRNA [4]. Moreover, the GI50 in assay [5] fell in the range of 1000 to 10000 nM.

As for `CCNC1CCN(c2ccc(C(=O)Nc3cc(Oc4ccccn4)c4nc(C)cn4c3)c3nn(C)cc23)CC1` [Compound 365, 4-[4-(ethylamino)-1-piperidyl]-2-methyl-N-[2-methyl-8-(2-pyridyloxy)-imidazo[1,2-a]pyridin-6-yl]indazole-7-carboxamide], the AC50 in the assay on HTT mRNA [1] was > 10000 nM; in the assay with MYB mRNA [2], 1000 to 10000 nM. The IC50 was > 10000 nM in the assay on HTT mRNA [1], 1000 to 10000 nM with MYB mRNA [2], > 10000 nM in the assay with HTT mRNA [3] and 1000 to 10000 nM in the assay with MYB mRNA [4]. Besides, in assay [5], the GI50 was > 10000 nM.

As to `CCNC1CCN(c2ccc(C(=O)Nc3cc(-n4ccccc4=O)c4nc(C)cn4c3)c3nn(C)cc23)CC1` [Compound 366, 4-[4-(ethylamino)-1-piperidyl]-2-methyl-N-[2-methyl-8-(2-oxo-1-pyridyl)imidazo[1,2-a]pyridin-6-yl]indazole-7-carboxamide], the AC50 in the assay with HTT mRNA [1] and in the assay on MYB mRNA [2] was > 10000 nM each time. Further, the IC50 in the assay on HTT mRNA [1], in the assay with MYB mRNA [2], in the assay with HTT mRNA [3] and in the assay with MYB mRNA [4] was > 10000 nM throughout. In addition, the GI50 in assay [5] was > 10000 nM.

For `COc1c(NC(=O)c2c(F)cc(N3CC[C@H](NC4CC4)C4(CC4)C3)c3cn(C)nc23)cn2cc(C)nc2c1F` [Compound 367, 4-[(8S)-8-(cyclopropylamino)-5-azaspiro[2.5]octan-5-yl]-6-fluoro-N-(8-fluoro-7-methoxy-2-methyl-imidazo[1,2-a]pyridin-6-yl)-2-methyl-indazole-7-carboxamide], the AC50 is 1000 to 10000 nM in the assay on HTT mRNA [1] and < 100 nM in the assay with MYB mRNA [2]. The IC50 in the assay on HTT mRNA [1] is 1000 to 10000 nM; in the assay with MYB mRNA [2], < 100 nM; in the assay on HTT mRNA [3], 1000 to 10000 nM; in the assay on MYB mRNA [4], < 100 nM. The GI50 in assay [5] was 100 to 1000 nM.

For the compound `COc1c(NC(=O)c2c(F)cc(N3CC[C@@H](NC4CC4)C4(CC4)C3)c3cn(C)nc23)cn2cc(C)nc2c1F` [Compound 368, 4-[(8R)-8-(cyclopropylamino)-5-azaspiro[2.5]octan-5-yl]-6-fluoro-N-(8-fluoro-7-methoxy-2-methyl-imidazo[1,2-a]pyridin-6-yl)-2-methyl-indazole-7-carboxamide], the AC50 in the assay with HTT mRNA [1] was 1000 to 10000 nM; in the assay with MYB mRNA [2], < 100 nM. Moreover, the IC50 in the assay with HTT mRNA [1] is 1000 to 10000 nM; with MYB mRNA [2] it was < 100 nM; in the assay with HTT mRNA [3], 1000 to 10000 nM; with MYB mRNA [4], < 100 nM. Also, in assay [5], the GI50 is 100 to 1000 nM.

Consider `COc1c(NC(=O)c2c(F)cc(N3CCC(NC4CC4)C4(CC4)C3)c3cn(C)nc23)cn2cc(C)nc2c1F` (stereo not drawn) [Compound 369, 4-[8-(cyclopropylamino)-5-azaspiro [2.5]octan-5-yl]-6-fluoro-N-(8-fluoro-7-methoxy-2-methyl-imidazo[1,2-a]-pyridin-6-yl)-2-methyl-indazole-7-carbox-amide], for which the AC50 with HTT mRNA [1] was 100 to 1000 nM; with MYB mRNA [2], < 100 nM. The IC50 with HTT mRNA [1] is 1000 to 10000 nM; with MYB mRNA [2], < 100 nM; in the assay with HTT mRNA [3] it was 1000 to 10000 nM; in the assay on MYB mRNA [4] it was < 100 nM. Besides, the GI50 in assay [5] lay within 100 to 1000 nM.

In the case of `Cc1cn2cc(NC(=O)c3ccc(N4CCC(N[C@@H]5C[C@H]5O)CC4)c4cn(C)nc34)cc(F)c2n1` [Compound 370, N-(8-fluoro-2-methylimidazo[1,2-a]pyridin-6-yl)-4-(4-(((1R,2R)-2-hydroxycyclopropyl)amino)piperidin-1-yl)-2-methyl-2H-indazole-7-carboxamide hydrochloride], the AC50 in the assay with HTT mRNA [1] is 1000 to 10000 nM; with MYB mRNA [2] it was < 100 nM. Besides, the IC50 in the assay on HTT mRNA [1] was 1000 to 10000 nM; with MYB mRNA [2], 100 to 1000 nM; in the assay on HTT mRNA [3], 1000 to 10000 nM; in the assay with MYB mRNA [4], 100 to 1000 nM. In addition, in assay [5], the GI50 was 1000 to 10000 nM.
